Measurements reported in US20200224168A1, “COMPOSITIONS AND METHODS FOR ENHANCING MATURATION STATES OF HEALTHY AND DISEASED CARDIOMYOCYTES” (University of Washington, priority 2017, published 2020).

Key:
[1] = tested on: mature DMD mutant hPSC-CMs; experiment: nanoMEA beat rate variability (Mean ΔBI), mature diseased cells; type: cell-based, human
Description: Cells were exposed to various concentrations of nitrendipine or sildenafil citrate for seven days and measured their beat rate variability. […] Briefly, the ion permeable polymer Nafion (Sigma-Aldrich) was patterned onto commercial multi-well MEA plates (Axion Biosystems) via solvent-mediated capillary force lithography. Prior to cell seeding, control flat or nanoMEA Nafion surfaces were sterilized with UV-C light and then incubated for 6 hours at 37° C. with 5 μg/cm^2 human fibronectin (Life Technologies). hPSC-CMs were plated in droplet fashion at 25,000 cells per well of the MEA plate. Electrophysiological analysis of spontaneously beating cardiomyocytes was collected for 2 minutes using the AxIS software (Axion Biosystems). After raw data collection, the signal was filtered using a Butterworth band-pass filter and a 90 μV spike detection threshold. Field potential duration was automatically determined using a polynomial fit T-wave detected algorithm.

hPSC-CMs = experiment: Immunofluorescent imaging, morphological and sarcomere analysis; type: cell-based, human; settings: for cell area compared to Control: single maturation cue on flat surface, 3 weeks
Text: For these studies, and all subsequent functional assays, the full ComboMat platform (Let7i+NP+T3) was compared to a viral vector Control (EV+Flat+No T3) and each maturation cue in isolation: NP (EV+NP+No T3), T3 (EV+Flat+T3), and Let7i (Let7i+Flat+No T3). […] Sarcomeres developed with a higher degree of directionality and order on NPs, resulting in more sarcomeres in register with one another (FIG. 2B).
[…] Samples were then permeabilized with 0.1% Triton X-100 (Sigma-Aldrich) in PBS and blocked with 5% goat serum. Cells were then incubated with mouse anti-α-actinin monoclonal antibody (1:1000, Sigma-Aldrich) in 1% goat serum overnight at 4° C. After washing with PBS, the samples were stained with Alexa-594 conjugated goat-anti-mouse secondary antibody (1:200, Invitrogen) as well as Alexafluo 488 labeled Phalloidin (1:200, Invitrogen). Nuclei counterstaining was performed with Vectashield containing DAPI (Vector Labs). A Nikon AIR confocal microscope with a Nikon CFI Plan Apo VC 60× water immersion objective was used to capture detailed immunofluorescent images for sarcomere analysis while a 20× air objective was used to obtain low-powered images of cells for measuring cell binucleation percentage. Cells from both objective powers were used to measure cell size. For morphological and sarcomere analysis, hPSC-CMs were plated at 10,000 cells/cm^2. […]
Immunofluorescent images were quantified for sarcomere alignment, pattern strength, and sarcomere length using a scanning gradient/Fourier transform script in MATLAB (Mathworks). Each image was broken into several small segments which were individually analyzed. Using a directional derivative, the image gradient for each segment was calculated to determine the local alignment of sarcomeres. The pattern strength was then determined by calculating the maximum peaks of one-dimensional Fourier transforms in the direction of the gradient. The lengths of sarcomeres were calculated by measuring the intensity profiles of the sarcomeres along this same gradient direction. […]

DMD mutant hPSC-CMs = experiment: Primary drug screen: intracellular ATP (CellTiter Glo) viability after hypotonic stress; settings: 18 hours compound incubation, then 12.5% normal osmolarity for 30 minutes, relative to DMSO control wells, concentration not stated (10^-8 to 10^-5 M tested)
[2] = tested on: cells exposed to Control conditions or Normal hPSC-CMs exposed to the ComboMat platform; experiment: nanoMEA beat rate variability, immature or healthy cells; type: cell-based, human; settings: seven days
Description: Cells were exposed to various concentrations of nitrendipine or sildenafil citrate for seven days and measured their beat rate variability. […] Briefly, the ion permeable polymer Nafion (Sigma-Aldrich) was patterned onto commercial multi-well MEA plates (Axion Biosystems) via solvent-mediated capillary force lithography. Prior to cell seeding, control flat or nanoMEA Nafion surfaces were sterilized with UV-C light and then incubated for 6 hours at 37° C. with 5 μg/cm^2 human fibronectin (Life Technologies). hPSC-CMs were plated in droplet fashion at 25,000 cells per well of the MEA plate. Electrophysiological analysis of spontaneously beating cardiomyocytes was collected for 2 minutes using the AxIS software (Axion Biosystems). After raw data collection, the signal was filtered using a Butterworth band-pass filter and a 90 μV spike detection threshold. Field potential duration was automatically determined using a polynomial fit T-wave detected algorithm. Beat interval analysis on 30 consecutive beats was performed as previously published^26 (see Table 3).

DMD patients = settings: cited from earlier work
mdx mouse = settings: cited from earlier work

## CCOC(=O)C1=C(C)NC(C)=C(C(=O)OC)C1c1cccc([N+](=O)[O-])c1 (centres unmarked) [NITRENDIPINE]
[1]; doses higher than 1 μM, seven days
  effect on spontaneous beating: ceased spontaneous beating
[1]; mature DMD mutant hPSC-CMs, Mean ΔBI after washout
  time for benefits to wash out after removal from cell culture medium: ≤ 48 h
[1]; mature DMD mutant hPSC-CMs, doses up to 1 μM, seven days
  beat rate variability level restored: < 50 ms

## N[C@@H](Cc1cc(I)c(Oc2ccc(O)c(I)c2)c(I)c1)C(=O)O [T3, Triiodothyronine]
hPSC-CMs; long-term T3 exposure (7, 14, 21 days), preliminary results
  impact of long-term exposure on sarcomere development and beat rate variability: negative impact
hPSC-CMs
  cell area compared to Control: significantly larger

## CN1CCc2c(c3ccccc3n2Cc2ccccc2)C1.CN1CCc2c(c3ccccc3n2Cc2ccccc2)C1.O=S(=O)(O)c1cccc2c(S(=O)(=O)O)cccc12 [MEBHYDROLIN NAPHTHALENESULFONATE]
DMD mutant hPSC-CMs
  Average of % Viability: 172.81 ± 39.86%

## CCCc1nn(C)c2c(=O)[nH]c(-c3cc(S(=O)(=O)N4CCN(C)CC4)ccc3OCC)nc12 [sildenafil]
[1]; mature (ComboMat) DMD mutant hPSC-CMs, seven days exposure, various concentrations
  Mean ΔBI (beat rate variability) compared to DMSO carrier control: no effect
[2]
  impact on beat rate variability: Neither nitrendipine nor sildenafil had a significant impact
DMD patients
  cardiac symptoms in DMD patients (clinical trial, terminated early): exacerbated cardiac symptoms
Mdx mouse
  cardiac dysfunction in the mdx mouse: showed promise in alleviating cardiac dysfunction

## Let7i: Let-7i miRNA (UGAGGUAGUAGUUUGUGCU duplex) overexpressed from a lentiviral vector (listed as Homo sapiens)
hPSC-CMs
  cell area compared to Control: significantly larger
